Assay results: patent US10780061B2, “Composition comprising farnesol and use thereof” (Daegu Gyongbuk Institute of Science and Technology, priority 2014, dated 2020)

How the values were obtained:
[1] = tested on: fibrosis-related genes Col1 A1, Col A3, TGF-β, Timp2; assay: qRT-PCR of fibrosis-related genes in extensor digitorum longus muscles; assay type: in vivo, mouse; settings: 22-month-old mice, farnesol diet 4 months
Protocol: In muscle aging, fibrosis is closely related to a reduction in regenerative capacity and a reduction in quality of muscle. 22-month-old female mice (weighing 30 g) are fed with a control diet or a farnesol-containing diet for 4 months. Other feeding conditions are the same as described in Section 2 of Example 1. Thereafter, expressions of fibrosis-related genes, collagen 1 A1 (Col1 A1), collagen A3(Col A3), TGF-β, and Timp2 in extensor digitorum longus muscles are analyzed by qRT-PCR (quantitative Real Time-polymerase chain reaction) (primer sets of SEQ ID NOS: 1 and 2, 3 and 4, 5 and 6, 7 and 8 are used).

PARIS [2] = assay: Immunoprecipitation analysis for PARIS in tibialis anterior muscles; assay type: in vivo, mouse; settings: 4-month-old mice fed with farnesol 0, 1, 2, 3 days
Protocol: To examine whether farnesol increases PARIS farnesylation in muscles, immunoprecipitation of PARIS is performed in tibialis anterior muscles of 4-month-old mice (female, 22 g) fed with farnesol for a predetermined period, that is, 0, 1, 2, and 3 days. The tibialis anterior muscles which are removed from the mice fed with farnesol are mixed with a lysis buffer (10 mM Tris-HCl, pH 7.4, 150 mM NaCl, 5 mM EDTA, 1% triton X-100, 10 mM Na-β-glycerophosphate, and Complete Protease Inhibitor Mixture (Roche)), and homogenized using a Diax 900 tissue homogenizer. The tissues are left under refrigeration for 30 minutes, and centrifuged at 52,000 rpm for 20 minutes. A supernatant is used for immunoprecipitation.

[3] = GA muscle mass, lean mass and heart mass of mice according to farnesol administration; assay type: in vivo, mouse
Protocol: 22-month-old female mice (weighing 30 g) are fed with a control diet and a farnesol diet for 4 months. That is, 22-month-old mice are fed for 4 months, and then 26-month-old mice are analyzed.

[4] = tested on: succinic dehydrogenase (SDH); assay: SDH staining (mitochondrial enzyme activity) of extensor digitorum longus muscle; assay type: in vivo, mouse
Protocol: Staining of succinic dehydrogenase (SDH) in the extensor digitorum longus muscle of a mouse administered with farnesol for 5 weeks is performed. This staining method is a method of analyzing mitochondrial activity by measuring activity of SDH which is an enzyme involved in the electron transport chain of mitochondria. Staining degree represents a content of oxidative muscle fiber. Frozen tissue sections are reacted in 0.2 M phosphate buffer (pH 7.4) containing […] sodium succinate and nitro blue tetrazolium (NBT) at 37° C. for 60 minutes, washed with distilled water, and then sealed, followed by observation. Further, farnesol is administered to mice in the same manner as in Section 4 of Example 2, except that 22-month-old mice are used instead of 5-month-old mice and administration is performed for 4 months instead of 5 weeks, and activity of a mitochondrial enzyme according to farnesol administration is analyzed in the extensor digitorum longus muscles of old mice.

[5] = Energy expenditure of old mice (Oxylet calorimetry); assay type: in vivo, mouse; settings: farnesol diet 4 months
Protocol: 22-month-old female mice (weighing 30 g) are fed with a control diet and a farnesol diet for 4 months. That is, 22-month-old mice are fed for 4 months, and then 26-month-old mice are analyzed. […] The same mouse is used as a control group, except that it is fed with a diet containing no farnesol. Muscle strength, energy expenditure, glucose tolerance, and fat accumulation of each mouse are evaluated. […] To measure energy expenditures of old mice administered with farnesol, mice are bred in a measurement apparatus, Oxylet system (calorimetry apparatus, Panlab Harvard apparatus) for 2 days. A METABOLISM software connected with metabolic measurement modules is used for analysis of energy expenditure.

PGC-1α = assay: Immunoblotting of tibialis anterior muscles of mice administered with farnesol; assay type: in vivo, mouse; settings: 5 month-old mice, feed with 0.5% w/w farnesol, 5 weeks
Protocol: 5 month-old C57BL/6 male mice (weighing 22 g) are maintained at a temperature of 22±2° C., humidity of 55±5%, and a light-dark cycle of 12:12 hours. An animal feed containing 0.5% w/w farnesol was supplied by Jung-Ang Lab Animal Inc. A control group is fed with a feed equivalent to a general feed for experimental animals, excluding that no 0.5% w/w farnesol is contained. They are allowed free access to drinking water. Skeletal muscles were separated from the mice and control mouse fed with farnesol for 5 weeks, and subjected to immunoblot analysis. In all the following Examples, administration or feeding of mouse is performed as above, unless otherwise mentioned. […] In this specification, assuming that human life expectancy of 100 years corresponds to mouse life expectancy of 3 years, human life expectancy is estimated from the relationship.

PARIS [6] = target: T1, PARIS (Mus musculus, UniProt Q3U133); assay: Immunoprecipitation analysis for PARIS farnesylation in myoblasts; assay type: cell-based
T1 construct: endogenous in cells; host or cells: C2C12 myoblasts
T1 sequence (Q3U133 whole entry): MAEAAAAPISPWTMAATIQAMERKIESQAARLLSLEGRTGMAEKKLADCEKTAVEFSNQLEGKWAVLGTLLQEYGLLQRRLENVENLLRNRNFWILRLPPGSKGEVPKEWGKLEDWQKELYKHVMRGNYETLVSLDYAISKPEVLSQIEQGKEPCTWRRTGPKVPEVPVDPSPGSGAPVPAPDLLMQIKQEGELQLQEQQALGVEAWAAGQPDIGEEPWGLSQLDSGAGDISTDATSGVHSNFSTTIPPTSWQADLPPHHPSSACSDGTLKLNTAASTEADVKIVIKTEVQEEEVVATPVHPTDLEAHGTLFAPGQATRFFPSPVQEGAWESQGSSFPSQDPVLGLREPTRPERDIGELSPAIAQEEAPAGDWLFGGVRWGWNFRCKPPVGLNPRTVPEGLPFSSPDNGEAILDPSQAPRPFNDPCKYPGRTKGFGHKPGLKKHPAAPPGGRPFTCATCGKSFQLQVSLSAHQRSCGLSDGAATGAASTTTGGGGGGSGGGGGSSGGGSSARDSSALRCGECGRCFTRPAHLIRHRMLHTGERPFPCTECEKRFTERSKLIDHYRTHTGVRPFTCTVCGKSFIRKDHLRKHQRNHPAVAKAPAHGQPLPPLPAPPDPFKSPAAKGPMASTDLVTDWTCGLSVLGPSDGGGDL
Protocol: C2C12 cells are cultured in the presence of farnesol, and cell lysate is subjected to immunoprecipitation. As an experimental group, C2C12 cells are cultured in the presence of 10 uM farnesol for 24 hours, and also cultured in the differentiation medium described in Section 2 of Example 1 for 24 hours by adding 10 uM farnesol according to a culturing schedule, that is, at 0 day, 1 day, 2 days, 3 days, and 4 days (hereinafter, also referred to as ‘D0, D1, D2, D3 and D4’ or ‘D0-D04’). Next, a cell lysis buffer (20 mM Tris-HCl, pH 8, 150 mM NaCl, 1% Triton X, Proteinase Inhibitor) is added to the harvested cells, and cell lysis is allowed under refrigeration for 60 minutes, followed by centrifugation at 13,000 rpm for 20 minutes. A supernatant is removed by 50 uL of protein A/G-agarose in advance, and a target protein antibody is reacted for 12 hours or longer. The resultant is mixed with protein A/G-agarose beads, and stirred for 1 hour. The beads are washed with a cold lysis buffer at a low concentration three times to remove abnormal protein binding. The obtained sample is mixed with a 2×SDS sample buffer (0.125 M Tris-HCl (pH 6.8), 4% SDS, 10% β-mercaptoethanol, 18% glycerol, and 0.1% Bromophenol Blue), and then electrophoresed on 8% SDS-PAGE. […]

[7] = old animal, farnesol diet 4 months

CC(C)=CCC/C(C)=C/CC/C(C)=C/CO [farnesol, (2E,6E)-3,7,11-trimethyldodeca-2,6,10-trien-1-ol]
expressions of fibrosis-related genes in EDL [1]: remarkably reduced
farnesylated PARIS level in tibialis anterior muscle (PARIS [2]): further increases
GA muscle mass [3, 7]: 0.099 g
heart mass (versus control old animal) [3, 7]: 0.156 g
lean mass [3, 7]: 15.3 g
side effects such as muscular hypertrophy ([3]; old animals, farnesol diet 4 months): does not cause side effects such as muscular hypertrophy
heart mass (versus control young animal) ([3]; printed as farnesol old animal, compared with control young animal): 0.115 g
percentage of the area stained dark (SDH activity) in EDL ([4]; 5-month-old mice, farnesol 5 weeks): remarkably increased
percentage of the area stained dark (SDH activity) in EDL ([4]; 22-month-old mice, farnesol 4 months): remarkably increased
energy expenditure [5]: significantly increased
expression of PGC-1α in tibialis anterior muscle (PGC-1α): increased
expression of cytochrome C in tibialis anterior muscle (PGC-1α): increased
farnesylated PARIS level (PARIS [6]; 10 uM farnesol, D0-D4): further increases
PGC-1α expression (PARIS [6]; 10 uM farnesol-treated myoblasts): increased
